A short description of data set [1]: Stability of the ginsenosides in human plasma (QC samples, LC-MS/MS method validation). The class given is in vitro ADME. The following applies: for Freeze-thaw stability, concentration found / Short-term stability, concentration found / Long-term stability, concentration found: human plasma; for Freeze-thaw stability, concentration found: 3 cycles; for Short-term stability, concentration found: 19 h at room temperature; for Long-term stability, concentration found: 50 days at -70℃; for Autosampler stability, concentration found: processed plasma samples, 34 h at ambient temperature. As to the method: The LC-MS/MS method was validated to determine selectivity, lower limits of quantification (LLOQ), accuracy, precision, recovery, matrix effect, and stability, according to the guideline for validating the bioanalytical method. The selectivity of the method was evaluated by comparison of blank plasma from six different men to the corresponding spiked plasma sample at the level of LLOQ to investigate the potential interferences at the LC chromatographic conditions for ginsenoside analytes and IS. The signal-to-noise ratio (S/N) of the LLOQ sample was at least five times the response compared to the blank samples. Each calibration curve was constructed by plotting the peak area ratio (y) of the analyte to IS against the spiked concentrations (x) of each analyte. Linearity was assessed by weighted (1/x^2) least squares regression analysis. The LLOQ was defined as the lowest concentration on the calibration curve with an S/N ratio of 10, where the precision and accuracy bias were within ±20% by five replicate analyses. The intra- and interday precision and accuracy assessments were performed at four concentrations with five replicates on the same day and three consecutive days, respectively. The acceptance criterion recommended by the guideline of precision and the accuracy was ±15% of the nominal concentration. The recovery of the seven ginsenosides was determined at three QC levels with three replicates by comparing the peak areas of plasma extracts spiked with analytes before extraction with those of the postextraction spiked samples at the same concentration. The matrix effects were investigated by comparing the peak areas of the analytes dissolved in the pretreated blank plasma with the corresponding concentrations prepared in the reconstitution solution with three replicates. The stability of the analytes in human plasma was assessed by analyzing five replicates of plasma samples at low, medium, and high QC levels under four different conditions. Short-term stability was evaluated after the exposure of QC samples to room temperature for 19 h before processing and analysis. The freeze and thaw stability was tested after three repeated cycles of thawing at room temperature and freezing at approximately −70°C. The long-term stability was assessed after storage at approximately −70°C for 50 days. The post-preparative stability was examined after the exposure of processed samples at ambient temperature (stored in an HPLC autosampler) for 34 h.

A short description of data set [2]: Pharmacokinetics of ginsenosides in plasma after a single oral dose of RG or BRG capsules in healthy Korean men (LC-MS/MS). It counts as in vivo, human. The note with it: for Cmax / half-life / AUC(0-t) / AUC(0-inf) / Tmax: male, human; for AUC(0-t): read-out: AUC(0–t); for AUC(0-inf): read-out: AUC(0–∞); for Tmax: read-out: T max. The source says:
This study was designed as a randomized, open-label, single-dose, crossover study with washout every 1 week to evaluate the pharmacokinetics and safety of ginsenosides. Subjects were randomly assigned to either the RG or BRG group during the first period of the study (Figure 2). After 1 week of the washout period, other products that were not received in the first period were provided. All enrolled subjects were hospitalized at Bestian Clinical Trial Center on the day before taking RG or BRG. Subjects were provided regular meals, and additional food intake was restricted after the meal. The next day, the subjects who had maintained the fasting state for 10 h took the capsules corresponding to 5 g of RG and BRG orally. Water was restricted for 1 h before and after intake, and food intake was restricted for 4 h after administration. After 4 h, all subjects received a standardized meal. In addition, lying down or sleeping was prohibited for 8 h after oral administration. Blood samples (5 mL) were collected before dosing and at each time point (0, 0.5, 1, 2, 4, 6, 8, 10, 12, and 24 h) after dosing. All blood samples were collected in heparin-treated tubes. The blood samples were promptly centrifuged at 3,000 rpm for 10 min at 4°C, and the plasma samples obtained were stored in a deep freezer at −70 ± 10°C until assay.
All analyses were performed using an Agilent 1200 series HPLC system (Agilent) with a Luna Phenyl-Hexyl column (2.0 × 150 mm, 5 μm; Phenomenex, CA, USA). The mobile phase comprised water (solvent A) and acetonitrile (solvent B) containing 0.1% formic acid. The flow rate of the mobile phase was 0.25–0.35 mL/min. The initial condition of 70% solvent A was set to 5% solvent A over 15 min. The content of ginsenosides in human plasma was measured using an API 5500 mass spectrometer (AB Sciex, Foster City, CA, USA) capable of multiple reaction monitoring (MRM). The parent-daughter ion pairs monitored were 845.5 ⟶ 799.6 for Rg1, 1153.6 ⟶ 1107.5 for Rb1, 829.4 ⟶ 783.5 for Rg3, and F2, 811.4 ⟶ 161.0 for Rg5 and Rk1, 667.4 ⟶ 161.0 for CK, and 825.4 ⟶ 779.3 for digoxin as an IS in the negative ion mode. Nitrogen gas was used in the nebulizer and the collision cell. The ion spray voltage was set to 5500 V.
Standard plasma samples were prepared such that each ginsenoside was in the concentration range of 0.5–100 ng/mL; 10 μL of a standard mixture of six kinds of ginsenosides (Rg1, Rb1, Rg5 + Rk1, F2, and CK) was added to 90 μL of blank human plasma. Rg3 was prepared in the concentration range of 0.2–40 ng/mL. Standard plasma samples (100 μL) were added to 200 μL of methanol containing 50 ng/mL digoxin, an IS. These were mixed for 1 min and then centrifuged at 12,000 rpm for 5 min at 4°C. Then, 100 μL of the supernatant was transferred to an LC vial, and 10 μL was injected into the LC-MS/MS system. Plasma samples stored at −70°C were thawed at room temperature. Samples for LC-MS/MS analysis were pretreated in the same manner as standard plasma samples.
Plasma concentrations of seven ginsenosides were calculated from calibration curves by calculating the ratio of the peak area of the test substance to the peak area of the IS. The following pharmacokinetic parameters were measured using Phoenix WinNonlin 6.3 (Pharsight Co, CA, USA): time to reach maximum observed plasma drug concentration (Tmax), maximum observed plasma drug concentration (Cmax), area under the plasma drug concentration-time curve from 0 h to the final measured time (AUC(0–t)), area under the plasma drug concentration–time curve from 0 h to infinity (AUC(0–∞)), and terminal elimination half-life (t1/2).

Details of data set [3]: method as in earlier work. The note with it: after oral Korean Red ginseng extract, ref 25 (Kim et al.); cited from earlier work.
Setting [4] is: plasma, po, 5 g, plasma, after single oral 5 g BRG, n = 13, mean ± SD.
Where [5] appears, read: plasma, po, 5 g, plasma, after single oral 5 g RG, n = 13, mean ± SD.

Structures are written as SMILES. Read-outs that look alike come from different tables or passages of the source.

As for `CC(C)=CCC[C@](C)(O[C@@H]1O[C@H](CO[C@@H]2O[C@H](CO)[C@@H](O)[C@H](O)[C@H]2O)[C@@H](O)[C@H](O)[C@H]1O)[C@H]1CC[C@]2(C)[C@@H]1[C@H](O)C[C@@H]1[C@@]3(C)CC[C@H](O[C@@H]4O[C@H](CO)[C@@H](O)[C@H](O)[C@H]4O[C@@H]4O[C@H](CO)[C@@H](O)[C@H](O)[C@H]4O)C(C)(C)[C@@H]3CC[C@]12C` [Rb1, ginsenoside Rb1], the “Freeze-thaw stability, concentration found” value worked out at 98.65 ± 0.66% in data set [1] (1.5 ng/mL) and 100.70 ± 2.36% in data set [1] (80 ng/mL). Moreover, the “Short-term stability, concentration found” value in data set [1] (1.5 ng/mL) is listed as 98.19 ± 1.40%; in data set [1] (80 ng/mL) it was 96.93 ± 5.41%. Further, the “Long-term stability, concentration found” value in data set [1] (1.5 ng/mL) turned out to be 102.01 ± 1.78%; in data set [1] (80 ng/mL), 105.06 ± 2.73%. The results for the “Autosampler stability, concentration found” value in data set [1] (1.5 ng/mL) and in data set [1] (80 ng/mL) were 97.98 ± 3.55% and 100.35 ± 5.32%, respectively. Besides, the “detection in plasma at the initial time point (0 h) of the second treatment period” value in data set [2] (after 1 week washout) is on record as “did not detect”. In addition, the Cmax is 4.04 ± 1.71 ng/mL in data set [2] (in vivo, po, C max); 3.19 ± 1.13 ng/mL in data set [2] (plasma, po, 5 g, plasma, after single oral 5 g BRG, n = 13, mean ± SD, read-out: C max); 3.94 ± 1.97 ng/mL in data set [3]. Besides, the half-life was 38 to 46 h in data set [2] (plasma, oral, 5 g, range over RG and BRG groups, read-out: t1/2); 38.1 ± 13.5 h in data set [2] (plasma, po, 5 g, plasma, after single oral 5 g BRG, n = 13, mean ± SD, read-out: T 1/2 (converted)); 45.9 ± 21.9 h in data set [2] (plasma, po, 5 g, plasma, after single oral 5 g RG, n = 13, mean ± SD, read-out: T 1/2 (converted)). Moreover, the exposure AUC(0-t) was found to be 56.9 ± 19.6 ng·h/mL in data set [2] (setting [4]) and 73.2 ± 29.8 ng·h/mL in data set [2] (setting [5]). For the same compound, the AUC(0-inf) is 182 ± 94.4 ng·h/mL in data set [2] (setting [4]) and 257 ± 115 ng·h/mL in data set [2] (setting [5]). Also, the values for the Tmax in data set [2] (setting [4]) and in data set [2] (setting [5]) were 6.92 ± 1.55 h and 7.23 ± 1.92 h, respectively.

These data come from PMC8803428, “Pharmacokinetics of Ginsenoside Rb1, Rg3, Rk1, Rg5, F2, and Compound K from Red Ginseng Extract in Healthy Korean Volunteers” (Evidence-based Complementary and Alternative Medicine : eCAM, 2022).
